Drawing on patent US7576222B2, “Alkynyl-containing tryptophan derivative inhibitors of TACE/matrix metalloproteinase” (priority 2004, dated 2009), this text covers inhibition for 25 molecules.

T1 sequence (P78536 223-474 limits assumed): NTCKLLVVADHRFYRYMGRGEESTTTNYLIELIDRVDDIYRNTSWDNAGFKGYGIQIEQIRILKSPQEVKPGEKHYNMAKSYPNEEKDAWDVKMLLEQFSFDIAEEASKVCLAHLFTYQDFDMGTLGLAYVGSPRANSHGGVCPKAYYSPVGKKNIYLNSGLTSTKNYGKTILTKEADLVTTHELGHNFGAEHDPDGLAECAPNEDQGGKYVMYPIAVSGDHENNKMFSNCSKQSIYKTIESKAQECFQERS

This assay addresses T1, catalytic domain of the recombinant TACE protein (Homo sapiens, UniProt P78536).
T1 construct: The catalytic domain of the recombinant TACE protein was expressed and purified; made in house
The assay is described as follows: TACE FRET assay using TACE cat. In kind it is biochemical. As to conditions: read-out: TACE Inhibition (%). The essentials: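 Initial fluorescence rate of Abz-[sequence]-Dpa pro-TNF-α peptide cleavage (substrate from 2 mM stock) read after adding substrate to enzyme (1 ug/ml) preincubated 10 min, room temperature, with inhibitor.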
As a reminder, the inhibition is the drop in the measured response relative to a control, in per cent. For the molecule `CC#CCOc1ccc(S(=O)(=O)N[C@@H](Cc2cn(CC3CCCCC3)c3ccc(C(=O)O)cc23)C(=O)O)cc1` [Example 132, N-{[4-(but-2-ynyloxy)phenyl]sulfonyl}-5-carboxy-1-(cyclohexylmethyl)tryptophan], the inhibition at 1 µM worked out at 9.55%.
In the case of `CC#CCOc1ccc(S(=O)(=O)N[C@@H](Cc2c[nH]c3ccc(Cl)cc23)C(=O)O)cc1` [Example 133, N-{[4-(but-2-ynyloxy)phenyl]sulfonyl}-5-chlorotryptophan], the inhibition at 1 µM worked out at 73.9%.
The figure for `CC#CCOc1ccc(S(=O)(=O)N[C@@H](Cc2c(C)[nH]c3ccccc23)C(=O)O)cc1` [Example 134, N-{[4-(but-2-ynyloxy)phenyl]sulfonyl}-2-methyltryptophan] is 64.2%; for `CC#CCOc1ccc(S(=O)(=O)N[C@@H](Cc2cn(Cc3ccccc3)c3ccc(C#N)cc23)C(=O)O)cc1` [Example 135, 1-benzyl-N-{[4-(but-2-ynyloxy)phenyl]sulfonyl}-5-cyanotryptophan] it is 29.6%; for `CC#CCOc1ccc(S(=O)(=O)N[C@@H](Cc2cn(Cc3ccc(C)cc3)c3ccc(C#N)cc23)C(=O)O)cc1` [Example 136, N-{[4-(but-2-ynyloxy)phenyl]sulfonyl}-5-cyano-1-(4-methylbenzyl)tryptophan] it is 57.8%.
Next, `CC#CCOc1ccc(S(=O)(=O)N[C@@H](Cc2cn(Cc3ccccc3OC)c3ccc(C#N)cc23)C(=O)O)cc1` [Example 137, N-{[4-(but-2-ynyloxy)phenyl]sulfonyl}-5-cyano-1-(2-methoxybenzyl)tryptophan]: 12.1%.
Next, `CC#CCOc1ccc(S(=O)(=O)N[C@@H](Cc2cn(Cc3cccc(OC)c3)c3ccc(C#N)cc23)C(=O)O)cc1` [Example 138, N-{[4-(but-2-ynyloxy)phenyl]sulfonyl}-5-cyano-1-(3-methoxybenzyl)tryptophan]: 29.4%.
As to `CC#CCOc1ccc(S(=O)(=O)N[C@@H](Cc2cn(Cc3ccc(OC)cc3)c3ccc(C#N)cc23)C(=O)O)cc1` [Example 139, N-{[4-(but-2-ynyloxy)phenyl]sulfonyl}-5-cyano-1-(4-methoxybenzyl)tryptophan], the inhibition at 1 µM amounted to 25.1%.
The figure for `CC#CCOc1ccc(S(=O)(=O)N[C@@H](Cc2cn(Cc3ccc(OC(F)(F)F)cc3)c3ccc(C#N)cc23)C(=O)O)cc1` [Example 140, N-{[4-(but-2-ynyloxy)phenyl]sulfonyl}-5-cyano-1-[4-(trifluoromethoxy)benzyl]tryptophan] is 16%.
For the molecule `CC#CCOc1ccc(S(=O)(=O)N[C@@H](Cc2cn(Cc3ccc(F)cc3)c3ccc(C#N)cc23)C(=O)O)cc1` [Example 141, N-{[4-(but-2-ynyloxy)phenyl]sulfonyl}-5-cyano-1-(4-fluorobenzyl)tryptophan], the inhibition at 1 µM came to 29.6%.
Next, `CC#CCOc1ccc(S(=O)(=O)N[C@@H](Cc2cn(Cc3ccc(C(C)C)cc3)c3ccc(C#N)cc23)C(=O)O)cc1` [Example 142, N-{[4-(but-2-ynyloxy)phenyl]sulfonyl}-5-cyano-1-(4-isopropylbenzyl)tryptophan]: 8.34%; `CC#CCOc1ccc(S(=O)(=O)N[C@@H](Cc2cn(CC(C)C)c3ccc(C#N)cc23)C(=O)O)cc1` [Example 143, N-{[4-(but-2-ynyloxy)phenyl]sulfonyl}-5-cyano-1-isobutyltryptophan]: 32.4%.
The figure for `CC#CCOc1ccc(S(=O)(=O)N[C@@H](Cc2c(C)n(Cc3ccccc3)c3ccccc23)C(=O)O)cc1` [Example 144, 1-benzyl-N-{[4-(but-2-ynyloxy)phenyl]sulfonyl}-2-methyltryptophan] is 18.8%.
The figure for `CC#CCOc1ccc(S(=O)(=O)N[C@@H](Cc2c(C)n(Cc3ccccc3C)c3ccccc23)C(=O)O)cc1` [Example 145, N-{[4-(but-2-ynyloxy)phenyl]sulfonyl}-2-methyl-1-(2-methylbenzyl)tryptophan] is 49.5%; for `CC#CCOc1ccc(S(=O)(=O)N[C@@H](Cc2c(C)n(Cc3ccccc3OC)c3ccccc23)C(=O)O)cc1` [Example 146, N-{[4-(but-2-ynyloxy)phenyl]sulfonyl}-1-(2-methoxybenzyl)-2-methyltryptophan] it is 35.9%; for `CC#CCOc1ccc(S(=O)(=O)N[C@@H](Cc2c(C)n(Cc3cccc(OC)c3)c3ccccc23)C(=O)O)cc1` [Example 147, N-{[4-(but-2-ynyloxy)phenyl]sulfonyl}-1-(3-methoxybenzyl)-2-methyltryptophan] it is 35.6%.
Turning to `CC#CCOc1ccc(S(=O)(=O)N[C@@H](Cc2c(C)n(Cc3ccc(OC)cc3)c3ccccc23)C(=O)O)cc1` [Example 148, N-{[4-(but-2-ynyloxy)phenyl]sulfonyl}-1-(4-methoxybenzyl)-2-methyltryptophan], the inhibition at 1 µM came to 44.1%.
Next, `CC#CCOc1ccc(S(=O)(=O)N[C@@H](Cc2c(C)n(Cc3cccc(C(F)(F)F)c3)c3ccccc23)C(=O)O)cc1` [Example 149, N-{[4-(but-2-ynyloxy)phenyl]sulfonyl}-2-methyl-1-[3-(trifluoromethyl)benzyl]tryptophan]: 50.5%; `CC#CCOc1ccc(S(=O)(=O)N[C@@H](Cc2c(C)n(Cc3ccc(C(F)(F)F)cc3)c3ccccc23)C(=O)O)cc1` [Example 150, N-{[4-(but-2-ynyloxy)phenyl]sulfonyl}-2-methyl-1-[4-(trifluoromethyl)benzyl]tryptophan]: 35.6%.
Consider `CC#CCOc1ccc(S(=O)(=O)N[C@@H](Cc2c(C)n(Cc3ccc(OC(F)(F)F)cc3)c3ccccc23)C(=O)O)cc1` [Example 151, N-{[4-(but-2-ynyloxy)phenyl]sulfonyl}-2-methyl-1-[4-(trifluoromethoxy)benzyl]tryptophan], for which the inhibition at 1 µM was found to be 24.3%.
With `CC#CCOc1ccc(S(=O)(=O)N[C@@H](Cc2c(C)n(Cc3ccccc3F)c3ccccc23)C(=O)O)cc1` [Example 152, N-{[4-(but-2-ynyloxy)phenyl]sulfonyl}-1-(2-fluorobenzyl)-2-methyltryptophan], the inhibition at 1 µM amounted to 51.7%.
Take `CC#CCOc1ccc(S(=O)(=O)N[C@@H](Cc2c(C)n(Cc3cccc(F)c3)c3ccccc23)C(=O)O)cc1` [Example 153, N-{[4-(but-2-ynyloxy)phenyl]sulfonyl}-1-(3-fluorobenzyl)-2-methyltryptophan]: the inhibition at 1 µM came to 55.9%.
The figure for `CC#CCOc1ccc(S(=O)(=O)N[C@@H](Cc2c(C)n(Cc3ccc(F)cc3)c3ccccc23)C(=O)O)cc1` [Example 154, N-{[4-(but-2-ynyloxy)phenyl]sulfonyl}-1-(4-fluorobenzyl)-2-methyltryptophan] is 52.7%; for `CC#CCOc1ccc(S(=O)(=O)N[C@@H](Cc2c(C)n(Cc3cc(F)cc(F)c3)c3ccccc23)C(=O)O)cc1` [Example 155, N-{[4-(but-2-ynyloxy)phenyl]sulfonyl}-1-(3,5-difluorobenzyl)-2-methyltryptophan] it is 54.3%.
Next, `CC#CCOc1ccc(S(=O)(=O)N[C@@H](Cc2c(C)n(Cc3ccc(Cl)cc3)c3ccccc23)C(=O)O)cc1` [Example 156, N-{[4-(but-2-ynyloxy)phenyl]sulfonyl}-1-(4-chlorobenzyl)-2-methyltryptophan]: 43.3%.
